Reference: a compilation of properties of binary mixtures (doi:10.1021/acs.jced.1c00387)

Test: xn = mol fraction of the nth substance listed
Settings: 81.5 kPa

CC(C)(N)CO + CC(=O)[O-].CC[n+]1ccn(C)c1
viscosity [mPa·s]
Settings | 293.15 K | 303.15 K | 313.15 K | 323.15 K | 333.15 K | 343.15 K | 353.15 K
x1 = 0.2 | 198 | 104 | 60.3 | 38.3 | 26 | 18.6 | 13.5
x1 = 0.4 | 136 | 74.9 | 45.5 | 29.9 | 20.9 | – | 11.7
x1 = 0.6 | 94.7 | – | 33.2 | – | 15.7 | – | 8.8
x1 = 0.8 | – | – | 29.3 | 18.6 | – | – | 6.8
x1 = 1 | – | – | 54.4 | 25.5 | 14.6 | 9.2 | 5.9

CC(=O)[O-].CC[n+]1ccn(C)c1 + CN(CCO)CCO
viscosity [mPa·s]
Settings | 293.15 K | 303.15 K | 313.15 K | 323.15 K | 333.15 K | 343.15 K | 353.15 K
x2 = 0 | 204 | 106 | 61.6 | 39.4 | – | 19.3 | –
x2 = 0.2 | 193 | 105 | 63.5 | 41.3 | 28.6 | 20.7 | 15.7
x2 = 0.4 | – | 96 | 59.8 | – | 28.1 | 20.6 | 15.6
x2 = 0.6 | 128 | 76.2 | 48.8 | 33.2 | 23.6 | 17.5 | 13.4
x2 = 0.8 | 109 | 61.5 | 39.1 | 26.4 | 18.7 | 13.7 | –

OCCNCCO + CC(=O)[O-].CC[n+]1ccn(C)c1
viscosity [mPa·s]
Settings | 293.15 K | 303.15 K | 313.15 K | 323.15 K | 333.15 K | 343.15 K | 353.15 K
x1 = 0.2 | 202 | – | – | 41.2 | 28.3 | 20.4 | 15.3
x1 = 0.4 | 197 | 108 | 65.2 | 42.4 | – | 21.2 | 15.9
x1 = 0.6 | 214 | – | 68.6 | 43.9 | 29.8 | 21.3 | –
x1 = 0.8 | – | 175 | 95.6 | 56.8 | 36.1 | 24.4 | –
x1 = 1 | – | – | 191 | 102 | 58.2 | 35.5 | 23

CC(=O)[O-].CC[n+]1ccn(C)c1 + CC(C)(N)CO
x2 = 0
Settings | viscosity [mPa·s]
293.15 K | 204
303.15 K | 106
313.15 K | 61.6
323.15 K | 39.4
333.15 K | 26.8
343.15 K | 19.3
353.15 K | 14.6

CC(=O)[O-].CC[n+]1ccn(C)c1 + OCCNCCO
x2 = 0
Settings | viscosity [mPa·s]
323.15 K | 39.4
343.15 K | 19.3
353.15 K | 14.6

CN(CCO)CCO + CC(=O)[O-].CC[n+]1ccn(C)c1
x1 = 1
Settings | viscosity [mPa·s]
303.15 K | 58
323.15 K | 22.1
333.15 K | 14.9
343.15 K | 10.4
353.15 K | 7.4
